Experimental data as given in BindingDB's records for doi:10.1016/s0960-894x(98)00672-6 (University of Maryland, 1999).

Biological target: Guanine deaminase (Oryctolagus cuniculus)
Assay: Compound was tested for its inhibitory effect on rabbit liver guanase

- Ki: 227 µM
SMILES: O=c1cnc2c(ncn2Cc2ccccc2)c(=O)[nH]1 [3-Benzyl-3H-imidazo[4,5-e][1,4]diazepine-6,8-dione]
